In patent US8648201B2, “Aminopyridine derivatives for treating tumors and inflammatory diseases” (MERCK PATENT GmbH, priority 2009, dated 2014):

Columns and labels:
PDK1 = molecular target: T1, PDK1 (Homo sapiens, UniProt O15530); test: IC50 PDK1 (cell); type: cell-based
T1 construct: endogenous in cells; host or cells: commercially available colon carcinoma, ovary, prostate or breast cell lines (none named)
T1 sequence (O15530 1-556): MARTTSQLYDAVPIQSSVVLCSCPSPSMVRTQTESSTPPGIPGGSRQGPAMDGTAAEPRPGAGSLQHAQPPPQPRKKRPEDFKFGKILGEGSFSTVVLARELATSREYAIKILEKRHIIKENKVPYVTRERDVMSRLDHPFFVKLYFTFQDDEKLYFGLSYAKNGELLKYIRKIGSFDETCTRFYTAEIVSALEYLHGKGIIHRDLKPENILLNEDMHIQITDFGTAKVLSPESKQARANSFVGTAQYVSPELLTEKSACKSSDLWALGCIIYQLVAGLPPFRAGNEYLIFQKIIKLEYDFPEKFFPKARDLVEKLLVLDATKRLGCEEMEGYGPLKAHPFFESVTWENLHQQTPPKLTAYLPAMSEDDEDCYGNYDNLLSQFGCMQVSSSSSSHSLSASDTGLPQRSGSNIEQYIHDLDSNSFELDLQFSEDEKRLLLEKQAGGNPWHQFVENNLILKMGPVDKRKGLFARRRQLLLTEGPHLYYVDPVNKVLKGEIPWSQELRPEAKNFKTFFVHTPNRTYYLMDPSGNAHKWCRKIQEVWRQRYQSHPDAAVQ
Procedure: The cells are sown in a suitable cell density in microtitre plates (96-well format) and the test substances are added in the form of a concentration series. After four further days of cultivation in serum-containing medium, the tumour cell proliferation/tumour cell vitality can be determined by means of an Alamar Blue test system. A defined number of cells (for example 2000 cells) per culture/well in a volume of 180 μl of culture medium are sown in microtitre plates (96 well cell-culture plates) using a multichannel pipette. The cells are subsequently cultivated in a CO2 incubator (37° C. and 10% CO2). The test substances are dissolved, for example, in DMSO and subsequently employed in corresponding concentration (if desired in a dilution series) in the cell culture medium. The dilution steps can be adapted depending on the efficiency of the active ingredients and the desired spread of the concentrations. Cell culture medium is added to the test substances in corresponding concentrations. The addition of the test substances to the cells can take place on the same day as the sowing of the cells. To this end, in each case 20 μl of substance solution from the predilution plate are added to the cultures/wells. The cells are cultivated for a further 4 days at 37° Celsius and 10% CO2. In each case, 20 μl of Alamar Blue reagent are added per well, and the microtitre plates are incubated, for example, for a further seven hours in a CO2 incubator (at 37° C. and 10% CO2). The plates are measured in a reader with a fluorescence filter at a wavelength of 540 nm. The plates can be shaken gently immediately before the measurement. The absorbance value of the medium control (no cells and test substances used) is subtracted from all other absorbance values. The controls (cells without test substance) are set equal to 100 percent, and all other absorbance values are set in relation thereto (for example in % of control): Calculation: 100*(value with cells and test substance−value of medium control)/(value with cells−value of medium control) IC50 values (50% inhibition) are determined with the aid of statistics programs, such as, for example, RS1.

IRAK-1 = molecular target: T2, IRAK-1 (Homo sapiens, UniProt P51617); test: Test for the inhibition of IRAK1 (autophosphorylation, flashplate); type: biochemical; conditions: enzyme
T2 construct: His6 (N); Dr.Jaekel Pool B, 232Y08C1.IRK
T2 sequence (P51617 whole entry, species assumed): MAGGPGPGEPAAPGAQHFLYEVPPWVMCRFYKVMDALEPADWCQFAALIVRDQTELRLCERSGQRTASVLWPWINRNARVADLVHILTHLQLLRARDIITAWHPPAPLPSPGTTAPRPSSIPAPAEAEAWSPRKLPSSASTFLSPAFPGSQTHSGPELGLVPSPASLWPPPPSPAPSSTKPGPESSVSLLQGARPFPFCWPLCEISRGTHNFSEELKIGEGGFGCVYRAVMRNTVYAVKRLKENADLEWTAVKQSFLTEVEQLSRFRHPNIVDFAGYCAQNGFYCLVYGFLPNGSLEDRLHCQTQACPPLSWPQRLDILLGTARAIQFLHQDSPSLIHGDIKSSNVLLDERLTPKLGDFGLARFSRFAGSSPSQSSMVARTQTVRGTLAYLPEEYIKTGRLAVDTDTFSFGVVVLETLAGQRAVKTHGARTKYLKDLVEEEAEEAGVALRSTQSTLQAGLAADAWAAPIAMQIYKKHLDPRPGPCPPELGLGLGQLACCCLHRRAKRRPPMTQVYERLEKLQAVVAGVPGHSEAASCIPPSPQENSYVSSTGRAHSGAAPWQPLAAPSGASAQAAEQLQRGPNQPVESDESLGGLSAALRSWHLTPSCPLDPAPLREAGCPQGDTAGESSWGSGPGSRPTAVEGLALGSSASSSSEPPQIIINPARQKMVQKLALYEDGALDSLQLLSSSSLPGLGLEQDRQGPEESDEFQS
Method in brief: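 His6-IRAK1 (5.1 nM) autophosphorylation with 1 μM ATP plus ^33P-ATP, 180 min at 22° C, read as incorporated radioactivity. Blank with 1 μM staurosporin was subtracted and activity expressed as % of no-compound control. IC50 derived from the dilution series.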

IRAK-4 = molecular target: T3, IRAK-4 (Homo sapiens, UniProt Q9NWZ3); test: Test for the inhibition of IRAK4 (flashplate, 33P-ATP); type: biochemical; conditions: enzyme
T3 construct: His6 (N); Dr.Jaekel
T3 sequence (Q9NWZ3 1-460): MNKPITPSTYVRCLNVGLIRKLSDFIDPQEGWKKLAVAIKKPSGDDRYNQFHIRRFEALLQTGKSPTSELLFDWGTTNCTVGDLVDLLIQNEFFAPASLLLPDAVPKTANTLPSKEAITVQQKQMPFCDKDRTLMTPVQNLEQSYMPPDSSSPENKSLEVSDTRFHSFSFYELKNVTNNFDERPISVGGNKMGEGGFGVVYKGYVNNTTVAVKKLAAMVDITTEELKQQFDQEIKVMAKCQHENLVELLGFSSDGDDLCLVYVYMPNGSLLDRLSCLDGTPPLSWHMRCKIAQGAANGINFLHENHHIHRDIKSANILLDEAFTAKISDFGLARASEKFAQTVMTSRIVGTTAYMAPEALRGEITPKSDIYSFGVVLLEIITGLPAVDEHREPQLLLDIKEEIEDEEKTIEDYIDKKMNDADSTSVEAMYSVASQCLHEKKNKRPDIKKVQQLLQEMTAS
Method in brief: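 His6-IRAK4 (7.3 nM) with biotinylated STK substrate 1 peptide (300 nM) and 10 μM ATP spiked with ^33P-ATP, incubated 180 min at 22° C. Incorporated radioactivity counted; blank from 1 μM staurosporine subtracted, activity expressed as % of no-compound control, IC50 by statistical fit.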

| Compound | IC50 (PDK1) [µM] | IC50 (IRAK-1) [nM] | IC50 (IRAK-4) [nM] |
| --- | --- | --- | --- |
| Cn1cc(-c2cnc(N)c(-c3nc4cccc(CO)c4[nH]3)c2)cn1 [Compound A52] | 0.1 to 10 | 100 to 10000 | 100 to 10000 |
| COc1ccc2nc(-c3cc(-c4cnn(C5CCNCC5)c4)cnc3N)[nH]c2c1 [Compound A92, 3-(6-Methoxy-1H-benzimidazol-2-yl)-5-(1-piperidin-4-yl-1H-pyrazol-4-yl)pyridin-2-ylamine] | > 10 | 1 to 100 | 1 to 100 |
| COc1ccc2nc(-c3cc(-c4ccsc4)cnc3N)[nH]c2c1 [Compound A144, 3-(6-methoxy-1H-benzimidazol-2-yl)-5-thiophen-3-ylpyridin-2-ylamine] | > 10 | 100 to 10000 | 100 to 10000 |
| Cn1cc(-c2cnc(N)c(-c3nc4ccc(C(=O)NCCc5ccc(F)c(F)c5)cc4[nH]3)c2)cn1 [Compound A128, N-[2-(3,4-difluorophenyl)ethyl]-2-[2-amino-5-(1-methyl-1H-pyrazol-4-yl)pyridin-3-yl]-3H-benzimidazole-5-carboxamide] | > 10 | 100 to 10000 | 100 to 10000 |
| CC1CC(=O)NN=C1c1ccc2nc(-c3cc(-c4cnn(C)c4)cnc3N)[nH]c2c1 (racemic) [Compound A1, 6-{2-[2-amino-5-(1-methyl-1H-pyrazol-4-yl)pyridin-3-yl]-3H-benzimidazol-5-yl}-5-methyl-4,5-dihydro-2H-pyridazin-3-one] | 0.1 to 10 | 100 to 10000 | > 10000 |
| COc1ccc2nc(-c3cc(-c4cnn(C)c4)cnc3N)[nH]c2c1 [Compound A43] | > 10 | 100 to 10000 | 100 to 10000 |
| COc1ccc2nc(-c3cc(-c4ccc(C(=O)NC5CCN(C)CC5)s4)cnc3N)[nH]c2c1 [Compound A133, N-(1-Methylpiperidin-4-yl)-5-[6-amino-5-(6-methoxy-1H-benzimidazol-2-yl)pyridin-3-yl]thiophene-2-carboxamide] | > 10 | 1 to 100 | 1 to 100 |
